{"source": "paper PMC9981747", "about": "“A covalent BTK ternary complex compatible with targeted protein degradation” (Nature Communications, 2023)", "key": {"BTK^FL-F559A": {"biological_target": "T1, BTK^FL-F559A (Homo sapiens, UniProt Q06187+Q13490, F559A)", "T1 construct": "we used a full-length BTK (aa1-659) with a C terminal Tobacco Etch Virus protease (TEV) site; expressed in transfected cells; host or cells: Expi293 (HEK293)", "T1 sequence (Q06187 whole entry F559A, the tested form may be a part)": "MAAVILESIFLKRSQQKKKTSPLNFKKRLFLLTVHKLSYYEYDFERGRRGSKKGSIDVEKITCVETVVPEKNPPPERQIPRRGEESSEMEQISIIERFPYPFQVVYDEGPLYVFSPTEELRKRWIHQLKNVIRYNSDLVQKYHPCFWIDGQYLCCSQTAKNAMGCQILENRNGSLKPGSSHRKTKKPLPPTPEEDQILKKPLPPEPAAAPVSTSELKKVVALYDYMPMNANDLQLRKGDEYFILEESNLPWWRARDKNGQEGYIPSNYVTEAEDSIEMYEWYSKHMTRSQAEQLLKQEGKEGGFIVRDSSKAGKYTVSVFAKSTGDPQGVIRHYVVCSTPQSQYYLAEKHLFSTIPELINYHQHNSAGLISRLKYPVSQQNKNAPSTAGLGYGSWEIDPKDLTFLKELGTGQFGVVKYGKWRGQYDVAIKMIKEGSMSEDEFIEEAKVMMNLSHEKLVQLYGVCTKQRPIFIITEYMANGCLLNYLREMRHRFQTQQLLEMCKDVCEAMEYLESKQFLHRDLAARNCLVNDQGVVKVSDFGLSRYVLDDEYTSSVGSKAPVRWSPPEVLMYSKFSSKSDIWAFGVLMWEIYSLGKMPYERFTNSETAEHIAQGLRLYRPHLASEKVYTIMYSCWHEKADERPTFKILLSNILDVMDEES", "T1 sequence (Q13490 whole entry, the tested form may be a part)": "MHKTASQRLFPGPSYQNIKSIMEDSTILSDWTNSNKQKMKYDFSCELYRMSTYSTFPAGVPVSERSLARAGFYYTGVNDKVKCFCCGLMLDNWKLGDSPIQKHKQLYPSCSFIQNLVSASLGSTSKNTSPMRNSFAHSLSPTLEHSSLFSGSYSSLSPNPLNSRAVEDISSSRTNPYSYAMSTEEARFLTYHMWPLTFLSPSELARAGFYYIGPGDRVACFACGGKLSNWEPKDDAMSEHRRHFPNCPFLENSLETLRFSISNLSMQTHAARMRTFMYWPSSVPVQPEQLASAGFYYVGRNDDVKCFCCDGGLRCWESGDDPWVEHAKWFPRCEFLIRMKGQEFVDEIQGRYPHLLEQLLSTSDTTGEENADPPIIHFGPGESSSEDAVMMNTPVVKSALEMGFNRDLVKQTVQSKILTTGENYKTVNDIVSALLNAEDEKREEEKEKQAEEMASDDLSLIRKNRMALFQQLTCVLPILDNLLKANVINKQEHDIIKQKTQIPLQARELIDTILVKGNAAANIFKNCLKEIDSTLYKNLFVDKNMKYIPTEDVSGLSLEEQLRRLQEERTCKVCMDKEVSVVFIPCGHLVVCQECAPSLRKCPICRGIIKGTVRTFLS", "assay": "Expi293 dose-dependent degradation of BTK^FL-F559A", "format": "cell-based", "details": "for BTK^FL-F559A blot signal normalized to DMSO: replicates", "method": "Gibco Expi293 cell line Transfection Kit (Cat.# A14524) was cultured according to the manufacturers conditions. Cells were grown at 37 °C with 5% CO2 to 4 × 10^6 cells/mL using an orbital shaker set to 95 RPM. Next cells were split to 2 × 10^6 cells/mL and transfected with plasmid DNA at a 1 µg/mL final concentration in Optimem (Gibco 31985070) using the Expifectamine 293 transfection reagent according to manufacturer’s conditions. After approximately 18 h, enhancers 1 and 2 (provided with kit). Viability was typically about 85%. When cIAP1^FL was transfected, it was detected via α-cIAP1 antibody there was typically some autoubiquitination detected, and thus often appeared as a laddered or smeared band via western blotting. When BTK^FL variants were transfected, they were detected using anti-BTK antibody (D3H5).\nFor dose-dependent degradation assays, cells were plated in a 24-well format and placed on a separate orbital shaker set to 115 RPM. Each well was treated with prescribed compound concentrations in the same manner as with THP-1 cells, with the exception of using Expifectamine 293 growth medium in place of RPMI 1640 complete media. After approximately 18 h post-treatment cells were harvested, centrifuged at 100 x g at 4 °C, washed twice with ice-cold PBS, and resuspended in RIPA buffer supplemented with a Roche protease inhibitor cocktail (Cat. #11873580001), and benzonase nuclease (Millipore-Sigma Cat# 70664). Each sample was incubated on ice for 30 min with periodic vortexing and centrifuged at 15 Kxg for 20 min. Clarified lysate was harvested and quantified using a Pierce BCA Assay Kit (Cat. #23225), and 20 µg of the sample was loaded into a 4–15% Criterion TGX gel (Bio-Rad, 5678085) and transferred to a nitrocellulose membrane (Life Technologies Cat. #IB23001) using an iBlot 2 (Life Technologies Cat. #IB21001). Proteins were detected using an iBind system (Life Technologies SLF2020). For BTK^T474I and BTK^T474I/C481S we inferred ligand entry into cells via the autoubiquitination and dose-dependent degradation of cIAP1^FL,[58].\nDose-dependent Degradation was analyzed using ImageJ (NIH, version 1.50i). Densiometric analysis was performed, normalized to DMSO signal, and analyzed using GraphPad Prism (Version 9.0.0 (121)). Non-linear fit one-phase decay analysis was used to obtain DC50 values. When we observed a hook effect, some points were excluded as part of the fit. In Supplementary Fig. 7B the complete curve was fit using GraphPad Prism non-linear regression bell-shaped curve where X is the concentration. However, using this method we were unable to obtain stable values for our DC50. SEM error was plotted for each point. When determining statistically significant differences, we used a two-sided student’s unpaired T-Test."}, "BTK^FL": {"biological_target": "T2, BTK^FL (Homo sapiens, UniProt Q06187+Q13490)", "T2 construct": "we used a full-length BTK (aa1-659) with a C terminal Tobacco Etch Virus protease (TEV) site; expressed in transfected cells; host or cells: Expi293 (HEK293)", "T2 sequence (Q06187 whole entry, the tested form may be a part)": "as the sequence (Q06187 whole entry F559A, the tested form may be a part) above, with A559F counted along it", "T2 sequence (Q13490 whole entry, the tested form may be a part)": "as the sequence (Q13490 whole entry, the tested form may be a part) above", "assay": "Tetracycline-inducible (T-REx) cIAP1^FL degradation of pre-formed BTK^FL~BCCov in Expi293", "format": "cell-based", "details": "pre-formed BTK^FL~BCCov (20 µM, 18 h), then tetracycline induction of cIAP1^FL", "method": "For assays involving inducible cIAP1 expression, 18 h after compound treatment cells were treated with a final concentration of 1.0 µg/mL tetracycline (Teknova Cat. #T3325) and shaken for another 18 h. These samples were processed for western blotting as detailed above. Washout condition consisted of 4 × 10 mL PBS resuspension, centrifugation, and removal repeated for four cycles before resuspension in cellular media."}, "cIAP1^BUCR1": {"biological_target": "cIAP1^BUCR1 (Homo sapiens, UniProt Q13490)", "sequence (Q13490 260-618)": "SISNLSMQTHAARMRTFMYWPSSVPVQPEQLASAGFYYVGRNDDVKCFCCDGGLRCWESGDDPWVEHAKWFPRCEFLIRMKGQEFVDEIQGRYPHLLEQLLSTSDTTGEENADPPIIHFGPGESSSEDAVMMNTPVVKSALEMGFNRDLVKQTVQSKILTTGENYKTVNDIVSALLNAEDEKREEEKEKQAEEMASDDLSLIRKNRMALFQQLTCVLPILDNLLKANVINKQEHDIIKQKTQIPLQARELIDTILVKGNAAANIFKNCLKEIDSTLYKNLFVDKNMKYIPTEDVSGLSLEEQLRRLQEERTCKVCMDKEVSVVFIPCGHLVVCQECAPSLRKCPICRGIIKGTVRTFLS", "assay": "biochemical", "procedure": "Experiments were performed on a Biacore^TM 8k instrument (GE Healthcare). Biotinylated cIAP1^Bir3 was captured onto a streptavidin sensor chip to levels ranging from 3000–4000 RU. Compound binding experiments were performed in 10 mM HEPES, pH 7.5, 150 mM NaCl, 0.02% BSA, 0.01% P20, and 2% DMSO at 25 °C. Experiments were carried out with n = 4 at 6 concentrations, with the highest concentration of 37 nM and subsequent 3-fold dilutions. BCCov was injected at a flow rate of 30 µL/min, total contact time of 120 s, and dissociation times of 5000 s, using the Single Cycle Kinetics experiment. Binding responses were processed using the Biacore 8k software to zero, x-align, double reference, and correct for excluded volume effects of DMSO in the data."}}, "note": "Values joined by “and” are separate entries in the source; they are usually repeats but may differ in a detail not shown here. Equal values may be shown once."}
{"smiles": "CNC(C)C(=O)NC(C(=O)N1CC(NC(=O)COCCN2CCN(CC=CC(=O)N3CCCC(n4nc(-c5ccc(Oc6ccccc6)cc5)c5c(N)ncnc54)C3)CC2)CC1C(=O)NC1CCCc2ccccc21)C1CCCCC1", "note": "(stereo not shown) [BCCov]", "values": [{"measurement": "BTK^FL-F559A blot signal normalized to DMSO", "setting": "BTK^FL-F559A; 0.00976562 uM", "result": "1.17 and 1.06 and 0.96"}, {"measurement": "BTK^FL-F559A blot signal normalized to DMSO", "setting": "BTK^FL-F559A; 0.0195312 uM", "result": "1.16 and 1.04 and 1.13"}, {"measurement": "BTK^FL-F559A blot signal normalized to DMSO", "setting": "BTK^FL-F559A; 0.0390625 uM", "result": "0.92 and 0.90 and 0.89"}, {"measurement": "BTK^FL-F559A blot signal normalized to DMSO", "setting": "BTK^FL-F559A; 0.078125 uM", "result": "0.58 (2×) and 0.71"}, {"measurement": "BTK^FL-F559A blot signal normalized to DMSO", "setting": "BTK^FL-F559A; 0.15625 uM", "result": "0.39 and 0.23 and 0.37"}, {"measurement": "BTK^FL-F559A blot signal normalized to DMSO", "setting": "BTK^FL-F559A; 0.3125 uM", "result": "0.25 and 0.12 and 0.28"}, {"measurement": "BTK^FL-F559A blot signal normalized to DMSO", "setting": "BTK^FL-F559A; 0.625 uM", "result": "0.23 and 0.10 and 0.24"}, {"measurement": "BTK^FL-F559A blot signal normalized to DMSO", "setting": "BTK^FL-F559A; 1.25 uM", "result": "0.22 and 0.0565 and 0.18"}, {"measurement": "BTK^FL-F559A blot signal normalized to DMSO", "setting": "BTK^FL-F559A; 2.5 uM", "result": "0.23 and 0.05 and 0.19"}, {"measurement": "BTK^FL-F559A blot signal normalized to DMSO", "setting": "BTK^FL-F559A; 5 uM", "result": "0.18 and 0.08 and 0.22"}, {"measurement": "degradation of F559A mutant", "setting": "BTK^FL-F559A; Expi293", "result": "retains potent cellular degradation"}, {"measurement": "Dmax", "setting": "BTK^FL", "result": "~70", "unit": "%"}, {"measurement": "Kd", "setting": "cIAP1^BUCR1", "result": "≤ 10", "unit": "nM"}]}
